Converted amounts (≈) assume the structure as drawn.
Legend:
E. coli B1927 = format: cell-based; conditions: checkerboard
Method: (§1) For the synergy test, standard checkerboard broth microdilution assays were conducted to test the synergistic effect of combined antimicrobials using the same condition as before[51],[56]. […] The initial concentration of both peptides was their individual MIC. 50 µL fresh bacterial suspension prepared as above was added to the wells already containing the antimicrobial compound mixture to achieve 100 µL final volume per well.
(§2) The fractional inhibitory concentration (FIC) indices[57] were calculated using the formula FICI = FICa + FICb = MICac/MICa + MICbc/MICb, to determine whether the combination is additive, synergistic or antagonistic[51],[57]. The MICa and MICb is the MIC of compound A or B alone, respectively. MICac is the MIC of compound A in combination with compound B and MICbc is the MIC of compound B when it was combined with compound A. The FIC corresponds to the MIC of a compound in combination with the other compound, divided by the MIC of the compound alone. FICa is FIC of compound A while FICb is FIC of compound B. The FICI was interpreted according to EUCAST[58] as follows: synergistic, FICI ≤ 0.5; additive,0.5 < FICI ≤ 1; indifferent, 1 < FICI < 2; antagonistic, FICI ≥ 2.

E. coli ATCC 25922 = format: cell-based; conditions: checkerboard
Method: as §1, §2

A. baumannii ATCC 17978 = format: cell-based; conditions: checkerboard
Method: as §1, §2

K. pneumoniae B1945 = format: cell-based; conditions: checkerboard
Method: as §1, §2

[1] = tested on: K. pneumoniae ATCC BAA-2524; format: cell-based; conditions: checkerboard
Method: as §1, §2

A. baumannii B2026 = format: cell-based; conditions: checkerboard
Method: as §1, §2

P. aeruginosa PA14 [2] = format: cell-based; conditions: checkerboard
Method: as §1, §2

E. coli ATCC BAA-2452 = format: cell-based; conditions: checkerboard
Method: as §1, §2

[3] = tested on: P. aeruginosa ATCC BAA-2108; format: cell-based; conditions: checkerboard
Method: as §1, §2

P. aeruginosa B1954 = format: cell-based; conditions: checkerboard
Method: as §1, §2

[4] = tested on: A. baumannii ATCC BAA-1605; experiment: microbe, parasite or virus in culture; format: cell-based; conditions: Acinetobacter baumannii, ATCCBAA1605, read-out: MIC alone (MICA vancomycin, MICB D-11)
Method: (§3) MIC tests were performed in triplicate by liquid growth inhibition microdilution assays in sterile polypropylene microtiter plates according to the Clinical and Laboratory Standards Institute (CLSI) guideline for bacteria that grow aerobically. Briefly, the indicator strains were first streaked on the appropriate agar plate, and then single colonies were picked and incubated overnight in liquid broth. The final inoculum of bacteria was 5*10^5 CFU/mL prepared in CAMHB (cationic adjusted Mueller–Hinton broth, Sigma-Aldrich) or CAMHB plus 5% of lysed horse blood (TCS Biosciences, Buckingham, UK) in the case of S. pneumoniae. The antimicrobials were 2-fold serially diluted and 50 µL diluted bacterial suspension was added to each well to make the final volume 100 µL. The microtiter plates and the count plates were incubated at 37 °C for 16–20 h without shaking. Growth inhibition was assessed by measuring the OD600 using a microplate reader (Tecan Infinity F200). The lowest concentration of the antimicrobials that inhibits visible growth of the indicator strain is identified as the MIC value.

HEK-293 cells = experiment: Cytotoxicity, cell viability (CellTiter-Glo); conditions: for Cell viability (% of control): HEK-293, CellTiter-Glo
Method: 96-well plates were seeded with HEK-293 cells at a concentration of 3*10^5 cells/well in 100 µL of DMEM growth medium supplemented with 1% NEAA and 10% FBS. Border wells were filled with 100 µL of sterile PBS. […] ATP levels were measured by adding 50 µL of CellTiter-Glo reagent (Promega, Madison, US) to each well, and luminescence was measured with a SpectraMax i3 microplate reader after 5 minutes of incubation. The potential effect of the tested compounds on cell viability was determined by comparing the signal obtained in the presence of different concentrations of the compounds with those obtained in the control wells. All these tests were performed in triplicate.

[5] = tested on: all the Gram-negative strains tested; experiment: organism not typed
Method: as §3
(§4) The condition for the tests and the analysis of the plates were performed as described above for the MIC tests.
Hemolytic activity was determined with fresh human red blood cells (hRBCs)[28]. The hRBCs were centrifuged (1000×g, 5 min) and the supernatant was discarded. The pellets were washed three times with PBS and diluted in PBS to make the cell stock solution with a cell density of 2*10^8 cells/mL. […] 1% Triton X-100 and PBS were used as controls. […] The supernatant was transferred to a new 96-well plate and hemolysis was monitored by measuring the absorbance at 450 nm (OD450). Hemolysis levels were calculated as percentage. % hemolysis = 100 × (As−A0)/(At−A0), where As, A0, and At are the absorbance of the hRBCs suspension in PBS with antimicrobial agents (As), without antimicrobial agents (A0), and with 1% Triton X-100 (At). […] For the TI calculation (TI = MHC/GM), other factors as the GM (geometric mean of MIC value of all the Gram-negative strains tested) were calculated.

P. aeruginosa PA14 [6] = experiment: Murine abscess model; format: in vivo, BALB/c mice
Method: An overnight P. aeruginosa PA14 culture was inoculated into fresh LB medium (100-fold dilution) and grown until an OD600 of 1.0. The culture was washed twice and resuspended in 0.9% NaCl to 10^8 CFU/mL. Four groups of five 6-week-old female BALB/c mice were used. […] After 24 h, the mice were sacrificed and the abscesses were excised to count the CFU. The bacterial loads were determined by serial dilution and plating. All animal experiments complied with the US and Chinese national guidelines for the use of animals in research. The protocol was approved by the Animal Care and Use Committee of the College of Life Sciences, Nankai University (permission number NK-04-2012). All procedures involving animals were performed after animals were anesthetized. The experimental results were analyzed with the GraphPad Prism software.

K. pneumoniae LMG 20218 = conditions: K. pneumoniae
Method: as §1, §2, §4

CN[C@H](CC(C)C)C(=O)N[C@H]1C(=O)N[C@@H](CC(N)=O)C(=O)N[C@H]2C(=O)N[C@H]3C(=O)N[C@H](C(=O)N[C@H](C(=O)O)c4cc(O)cc(O)c4-c4cc3ccc4O)[C@H](O)c3ccc(c(Cl)c3)Oc3cc2cc(c3O[C@@H]2O[C@H](CO)[C@@H](O)[C@H](O)[C@H]2O[C@H]2C[C@](C)(N)[C@H](O)[C@H](C)O2)Oc2ccc(cc2Cl)[C@H]1O [Vancomycin]
MICAB: MIC of vancomycin in combination with D-11 at the MICAC concentration (E. coli B1927): 5.52 µM
MICAB: MIC of vancomycin in combination with D-11 at the MICAC concentration (E. coli ATCC 25922): 5.52 µM
MICAB: MIC of vancomycin in combination with D-11 at the MICAC concentration (A. baumannii ATCC 17978): 5.52 µM
MICAB: MIC of vancomycin in combination with D-11 at the MICAC concentration (K. pneumoniae B1945): 11.04 µM
MICAB: MIC of vancomycin in combination with D-11 at the MICAC concentration [1]: 11.04 µM
MICAB: MIC of vancomycin in combination with D-11 at the MICAC concentration (A. baumannii B2026): 2.76 µM
MICAB: MIC of vancomycin in combination with D-11 at the MICAC concentration (P. aeruginosa PA14 [2]): 32 µM
MICAB: MIC of vancomycin in combination with D-11 at the MICAC concentration (E. coli ATCC BAA-2452): 2.76 µM
MICAB: MIC of vancomycin in combination with D-11 at the MICAC concentration [3]: 44.15 µM
MICAB: MIC of vancomycin in combination with D-11 at the MICAC concentration (P. aeruginosa B1954): 44.15 µM
MIC [4]: 44.2 µM (≈ 64 µg/mL)
Cell viability (% of control) (HEK-293 cells; 22 µM (22/22 µM for the combination), replicate 1): 96 % of control
Cell viability (% of control) (HEK-293 cells; 22 µM (22/22 µM for the combination), replicate 2): 107 % of control
Cell viability (% of control) (HEK-293 cells; 22 µM (22/22 µM for the combination), replicate 3): 113 % of control
Cell viability (% of control) (HEK-293 cells; 44 µM (44/44 µM for the combination), replicate 1): 110 % of control
Cell viability (% of control) (HEK-293 cells; 44 µM (44/44 µM for the combination), replicate 2): 102 % of control
Cell viability (% of control) (HEK-293 cells; 44 µM (44/44 µM for the combination), replicate 3): 114 % of control
Cell viability (% of control) (HEK-293 cells; 88 µM (88/88 µM for the combination), replicate 1): 103 % of control
Cell viability (% of control) (HEK-293 cells; 88 µM (88/88 µM for the combination), replicate 3): 114 % of control
effect on viability of HEK-293 cells (HEK-293 cells; all the concentrations tested (up to 88 µM)): did not affect the viability
increase of MIC against Gram-negative pathogens when LPS was in the medium ([5]; LPS 1 mg/mL, vancomycin: except against A. baumannii): 2 fold
MIC ([5]; read-out: GM, MIC geometric mean against all the Gram-negative strains tested): 87.7 µM (≈ 127 µg/mL)
log10 CFU per abscess (P. aeruginosa PA14 [6]; mouse 1 of 5, P. aeruginosa PA14 s.c., treatment injected into infection area 1 h post-infection, 24 h, vancomycin 3 mg/kg, D-11 10 mg/kg, or both): 8.341 log10 CFU per abscess
log10 CFU per abscess (P. aeruginosa PA14 [6]; mouse 2 of 5, same conditions): 7.354 log10 CFU per abscess
log10 CFU per abscess (P. aeruginosa PA14 [6]; mouse 3 of 5, same conditions): 7.321 log10 CFU per abscess
log10 CFU per abscess (P. aeruginosa PA14 [6]; mouse 4 of 5, same conditions): 7.43 log10 CFU per abscess
log10 CFU per abscess (P. aeruginosa PA14 [6]; mouse 5 of 5, same conditions): 7.5121 log10 CFU per abscess
vancomycin concentration needed in combination with D-11 (K. pneumoniae LMG 20218; checkerboard after the addition of excess LPS (1.0 mg/mL)): at least 32 µM
vancomycin concentration inhibiting growth in combination with 1 µM D-11 (K. pneumoniae LMG 20218; checkerboard without the addition of LPS): 2 µM

From PMC7782785, “Outer-membrane-acting peptides and lipid II-targeting antibiotics cooperatively kill Gram-negative pathogens” (Communications Biology, 2021)
